In patent US20030036184A1 (priority 2000, published 2003):

Assays:
PDE7(101-450) = target: T1, PDE7(101-450) (Homo sapiens, UniProt Q13946); experiment: PDE assay for IC50 measurements (SPA, cell lysate enzyme); format: biochemical; settings: for sensitivity of enzyme to inhibitor: PDE7(101-450) produced in Baculovirus or eucaryote
T1 construct: made in house; host or cells: CHO (EcRCHO) cells, transient transfection; crude lysate supernatant
Experimental: (§1) The cell lysates containing PDE7A1 (full length or the truncated forms) were used as enzyme source. PDE assays were performed in 96-well plates in a final volume of […] at pH 8 comprising: 2 μL of compound dissolved in DMSO at 8 different concentrations, 40 mM TRIS, 10 mM MgCl2, 50 nM [^3H]-cAMP (Amersham) and enzyme at the appropriate concentration. Plates were incubated for 10 min at 37° C. in a heater/shaker and stopped by addition of 20 μL Yttrium silicate beads (Scintillation Proximity Assay, Amersham). Enzyme activity was read on a Topcount reader (Packard). Substrate depletion never exceeded 15% of the initial amount. The given IC50s represent the concentration of compound leading to 50% inhibition of the cAMP hydrolysis versus control. They are calculated using a classical sigmoidal model with Hill slope fixed to 1.
(§2) The cell lysates containing recombinant PDE7A1 (full length or the truncated forms) were used as enzyme source. PDE assays were performed in 96-well plates in a final volume of 100 μL at pH 8 comprising: […] of compound dissolved in DMSO at 8 different concentrations, 40 mM TRIS, 10 mM MgCl2, 50 nM [^3H]-cAMP and enzyme at the appropriate concentration.
(§3) Plates were incubated for 10 min at 37° C. in a heater/shaker and stopped by addition of 20 μL Yttrium silicate beads (Scintillation Proximity Assay, Amersham).
(§4) Enzyme activity was determined by measuring the radioactivity on a Topcount reader (Packard).
(§5) Substrate depletion never exceeded 15% of the initial amount. The given IC50s represent the concentration of compound leading to 50% inhibition of the cAMP hydrolysis versus control. They are calculated using a classical sigmoidal model with Hill slope

PDE7(101-483) [1] = target: T2, PDE7(101-483) (Homo sapiens, UniProt Q13946); experiment: as above; format: biochemical
T2 construct: this catalytic fragment (101-482) fragment was co-expressed; made in house; host or cells: CHO (EcRCHO) cells, transient transfection; crude lysate supernatant
Experimental: as §1, §2, §3, §4, §5

[2] = target: T3, recombinant full length PDE7A1 (Homo sapiens, UniProt Q13946); experiment: as above; format: biochemical; settings: for sensitivity of enzyme to inhibitor: full length PDE7A produced in Baculovirus or eucaryote
T3 construct: the full length PDE7A1 protein (1-483); made in house; host or cells: CHO (EcRCHO) cells, transient transfection, cytosol/lysate supernatant; Sf21/baculovirus also described
T3 sequence (Q13946 whole entry): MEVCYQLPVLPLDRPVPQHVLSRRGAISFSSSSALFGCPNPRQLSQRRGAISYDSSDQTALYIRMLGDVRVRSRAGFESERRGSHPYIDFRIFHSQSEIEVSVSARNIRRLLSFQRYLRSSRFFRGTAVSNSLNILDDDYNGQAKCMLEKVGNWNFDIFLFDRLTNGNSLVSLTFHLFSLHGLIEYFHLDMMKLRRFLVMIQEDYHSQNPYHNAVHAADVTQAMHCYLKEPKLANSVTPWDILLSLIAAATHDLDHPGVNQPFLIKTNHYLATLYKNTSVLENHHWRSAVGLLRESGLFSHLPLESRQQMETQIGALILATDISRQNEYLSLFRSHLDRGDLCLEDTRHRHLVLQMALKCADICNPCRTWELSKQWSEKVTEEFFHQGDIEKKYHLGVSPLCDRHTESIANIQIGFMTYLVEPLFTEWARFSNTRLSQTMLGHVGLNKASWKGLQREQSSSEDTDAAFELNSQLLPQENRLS
Experimental: as §1, §2, §3, §4, §5

PDE7A = PDE7A (Homo sapiens, UniProt Q13946); settings: cited from earlier work
PDE7A, sequence (Q13946 whole entry, species assumed): as the sequence (Q13946 whole entry) above

recombinant PDE7A1 = target: T4, recombinant PDE7A1 (Homo sapiens, UniProt Q13946); experiment: cAMP hydrolysis in cytosol extract of transfected CHO cells, with or without rolipram; format: biochemical; settings: rolipram 10 μM
T4 construct: the full length PDE7A1 protein (1-483); made in house; host or cells: CHO (EcRCHO) cells, transient transfection, cytosol/lysate supernatant; Sf21/baculovirus also described
T4 sequence (Q13946 whole entry): as above
Source text: (§6) The reaction mixtures were then applied to these columns.

PDE7(101-483) [3] = target: T2, PDE7(101-483); experiment: cAMP hydrolysis in cytosol extract of transfected CHO cells, with rolipram; format: biochemical; settings: truncated PDE7 construct 101-483 in CHO; rolipram at 10 μM
Experimental: Three days before transfection, CHO cells were plated at a density of 2×10^6 cells per 150 cm^2 flask. Cells were transfected with 20 μg of endotoxin free plasmid DNA using Lipofectamine following the manufacturers instructions (Gibco BRL, Gaithersburg, Md.). After incubation for 48 hours, cells were washed twice with phosphate buffered saline (PBS), trypsinized, harvested by centrifugation and resuspended in 300 μL of PDE extraction buffer (Bis Tris 20 mM (pH 6.5), EDTA 10 mM, DTT 2.5 M) supplemented with a mixture of protease inhibitors at a final concentration of 2 mM benzamidine, 2 μg/ml soybean trypsin inhibitor, 50 μM PMSF and 100 μg/ml bacitracin. Cells were sonicated, centrifuged for 20 minutes at 14,000 g and the resultant supernatants were analyzed for cAMP phosphodiesterase activity.
Phosphodiesterase activities were assayed using a modification of the method described by Smith and collaborators (Manganellio et al., 1991) using the observation that 5′-nucleotides bind very strongly to aluma while the cyclic nucleotides are readily eluted at neutral or slightly alkaline pH. Assays were performed in 96 well plates at 37° C. in a total volume of 200 μl. […] The separated [^3H] cAMP was back-corrected for recovery using the separated and non-separated [^14C] values and expressed as a fraction of the total [^3H] cAMP to give the amount of the substrate hydrolyzed. […]

[4] = target: PDE7 mutant corresponding to the amino acids sequence 101-483 of the full length human PDE7A1 (human) (UniProt Q13946); experiment: cell-based or functional assay
[5] = PDE assay for Km measurements; format: biochemical; settings: Km for cAMP
Experimental: The cell lysates containing PDE7A1 (full length or the truncated forms) were used as enzyme source. […] Substrate concentrations spanned a 15 nM-750 nM range. Plates were incubated for 10 min at 37° C. in a heater/shaker and stopped by addition of 20 μL Yttrium silicate beads (Scintillation Proximity Assay, Amersham). Enzyme activity was read on a Topcount reader (Packard). Substrate depletion never exceeded 15% of the initial amount. Saturation curves were then fitted with a classical sigmoidal model, Hill slope fixed to 1.
By performing kinetics studies and Km measurements as described above, the respective Km values of the full length PDE7A1 and the truncated 101-450 PDE7A1 recombinant proteins expressed in CHO cells have been determined and are shown in Table 1 below.
The Km for cAMP of the PDE7(101-450), PDE7(101-483), have been measured and compared to those of endogenously expressed PDE7 in human lymphocyte cell line (Molt4) and the full length wild type recombinant PDE7A1 (Table 1).

[6] = PDE catalytic activity of full length and truncated PDE7A1 expressed in CHO cells; format: biochemical; settings: for level of PDE activity after expression in CHO cells (in words): cell cytosol, compared with full length PDE7A1 or PDE7Δ100; for increase in PDE catalytic activity compared to full length PDE7A1/PDE7A2 / phosphodiesterase catalytic activity relative to full length enzyme: expressed in CHO cells
Experimental: as §6
The resultant PDE activity was measured and compared to that for the full length coding region of PDE7A1 and non-transfected cells. […] The first 100 amino acids seem to have an influence on the catalytic activity of the expressed PDE7 enzyme.

[7] = target: T5, catalytic fragment (101-482) (Homo sapiens, UniProt Q13946); experiment: Co-expression of the first 100 N-terminal amino acids with the catalytic fragment in CHO cells, PDE activity; format: cell-based
T5 construct: this catalytic fragment (101-482) fragment was co-expressed; 6xHis (N); expressed in transfected cells; host or cells: CHO cells co-transfected (lipofectamine) with two plasmids; PDE activity measured
Experimental: This part of the protein has been proposed to act as an auto-inhibitory domain. To establish if overexpression of the first 100 amino acids can inhibit PDE7 activity of the catalytic site, this catalytic fragment (101-482) fragment was co-expressed with the fragment 1-101 of a separate plasmid or with the plasmid pcDNA3 without this insert (negative control). Cells were transfected with 15 μg of each plasmid DNA. The catalytic site activity was inhibited of only around 40-50% in presence of fragment 1-101. (FIG. 12) The effect dose response has been checked to evaluate the involvement of the first 100 amino in PDE7 activity of the catalytic domain.
A dose effect curve has been done in the same coexpression conditions. 15 μg of the catalytic fragment (101-482) was coexpressed with increasing quantity of the fragment 1-101 of a separate plasmid. The DNA quantity was normalized for each transfection using an empty vector. (FIG. 13) A effect dose response of 100 N-terminal amino acids on PDE7 activity was observed (n=3). The catalytic domain activity was inhibited until 60% in presence of the fragment 1-100 at the highest concentration.

CC(C)Cn1c(=O)n(C)c(=O)c2[nH]cnc21 [IBMX, 3 isobutyl-1-methyl xanthine]
IC50 (PDE7(101-450); PDE7(101-450)): 13 to 14 µM
IC50 (PDE7(101-483) [1]): 13 to 14 µM
IC50 ([2]; recombinant full length PDE7A1): 13 to 14 µM

CN/C(=N\c1ccc(C2=NNC(=O)CC2C)cc1)NC#N (stereo not drawn) [SKF-94836]
sensitivity of enzyme to inhibitor (PDE7(101-450)): insensitive
sensitivity of enzyme to inhibitor [2]: insensitive
sensitivity of PDE7A to standard selective inhibitors of other PDE families (PDE7A): insensitivity

CCOC(=O)C1=C[C@]2(CC)CCCN3CCc4c(n1c1ccccc41)[C@@H]32 [Vinpocetin]
sensitivity of enzyme to inhibitor (PDE7(101-450)): insensitive
sensitivity of enzyme to inhibitor [2]: insensitive
sensitivity of PDE7A to standard selective inhibitors of other PDE families (PDE7A): insensitivity

CCCOc1ccccc1-c1nc2nn[nH]c2c(=O)[nH]1 [Zaprinast]
sensitivity of enzyme to inhibitor (PDE7(101-450)): insensitive
sensitivity of enzyme to inhibitor [2]: insensitive
sensitivity of PDE7A to standard selective inhibitors of other PDE families (PDE7A): insensitivity

Cc1[nH]c(=O)c(C#N)cc1-c1ccncc1 [milrinone]
sensitivity of PDE7A to standard selective inhibitors of other PDE families (PDE7A): insensitivity

COc1ccc(C2CNC(=O)C2)cc1OC1CCCC1 (stereo not drawn) [rolipram]
sensitivity of enzyme to inhibitor (PDE7(101-450)): insensitive
sensitivity of enzyme to inhibitor [2]: insensitive
sensitivity of increase in cAMP activity above basal to rolipram (recombinant PDE7A1): insensitive
sensitivity of PDE activity to rolipram (PDE7(101-483) [3]): insensitive

first N-terminal 100 amino acids of the full length human PDE7A1 (from UniProt Q13946 1-100)
PDE7 catalytic domain activity in CHO cells, 15 µg catalytic fragment plasmid with increasing quantity of fragment 1-101 plasmid, percent inhibition at the highest concentration [4]: 60%
PDE7 catalytic site activity in lysates of co-transfected CHO cells (15 µg of each plasmid), percent inhibition [4]: 40 to 50%

B1: PDE7A;101-450: truncated human PDE7A1, amino acids 101-450; positions 45-394 of SEQ ID No1 (protein, listed as Homo sapiens)
chain: VSVSARNIRRLLSFQRYLRSSRFFRGTAVSNSLNILDDDYNGQAKCMLEKVGNWNFDIFLFDRLTNGNSLVSLTFHLFSLHGLIEYFHLDMMKLRRFLVMIQEDYHSQNPYHNAVHAADVTQAMHCYLKEPKLANSVTPWDILLSLIAAATHDLDHPGVNQPFLIKTNHYLATLYKNTSVLENHHWRSAVGLLRESGLFSHLPLESRQQMETQIGALILATDISRQNEYLSLFRSHLDRGDLCLEDTRHRHLVLQMALKCADICNPCRTWELSKQWSEKVTEEFFHQGDIEKKYHLGVSPLCDRHTESIANIQIGFMTYLVEPLFTEWARFSNTRLSQTMLGHVGLNKAS
Km [5]: 0.07 µM
Km ([5]; Table 1): 0.074 µM
level of PDE activity after expression in CHO cells (in words) [6]: equivalent to that observed for PDE7Δ100
increase in PDE catalytic activity compared to full length PDE7A1/PDE7A2 [6]: about 15 fold
phosphodiesterase catalytic activity relative to full length enzyme [6]: about 15 times

B2: PDE7A;101-420: truncated human PDE7A1, amino acids 101-420 (protein, UniProt Q13946 101-420, looked up, fragment)
chain: VSVSARNIRRLLSFQRYLRSSRFFRGTAVSNSLNILDDDYNGQAKCMLEKVGNWNFDIFLFDRLTNGNSLVSLTFHLFSLHGLIEYFHLDMMKLRRFLVMIQEDYHSQNPYHNAVHAADVTQAMHCYLKEPKLANSVTPWDILLSLIAAATHDLDHPGVNQPFLIKTNHYLATLYKNTSVLENHHWRSAVGLLRESGLFSHLPLESRQQMETQIGALILATDISRQNEYLSLFRSHLDRGDLCLEDTRHRHLVLQMALKCADICNPCRTWELSKQWSEKVTEEFFHQGDIEKKYHLGVSPLCDRHTESIANIQIGFMTYL
modifications: PDE7A1
level of PDE activity after expression in CHO cells (in words) [6]: no detectable increase

B3: PDE7A;101-430: truncated human PDE7A1, amino acids 101-430 (protein, UniProt Q13946 101-430, looked up, fragment)
chain: VSVSARNIRRLLSFQRYLRSSRFFRGTAVSNSLNILDDDYNGQAKCMLEKVGNWNFDIFLFDRLTNGNSLVSLTFHLFSLHGLIEYFHLDMMKLRRFLVMIQEDYHSQNPYHNAVHAADVTQAMHCYLKEPKLANSVTPWDILLSLIAAATHDLDHPGVNQPFLIKTNHYLATLYKNTSVLENHHWRSAVGLLRESGLFSHLPLESRQQMETQIGALILATDISRQNEYLSLFRSHLDRGDLCLEDTRHRHLVLQMALKCADICNPCRTWELSKQWSEKVTEEFFHQGDIEKKYHLGVSPLCDRHTESIANIQIGFMTYLVEPLFTEWAR
modifications: PDE7A1
level of PDE activity after expression in CHO cells (in words) [6]: no detectable increase

B4: PDE7Δ100: human PDE7A1 construct which lacks the first 100 amino acids; positions 45-427 of SEQ ID No1 (protein)
chain: VSVSARNIRRLLSFQRYLRSSRFFRGTAVSNSLNILDDDYNGQAKCMLEKVGNWNFDIFLFDRLTNGNSLVSLTFHLFSLHGLIEYFHLDMMKLRRFLVMIQEDYHSQNPYHNAVHAADVTQAMHCYLKEPKLANSVTPWDILLSLIAAATHDLDHPGVNQPFLIKTNHYLATLYKNTSVLENHHWRSAVGLLRESGLFSHLPLESRQQMETQIGALILATDISRQNEYLSLFRSHLDRGDLCLEDTRHRHLVLQMALKCADICNPCRTWELSKQWSEKVTEEFFHQGDIEKKYHLGVSPLCDRHTESIANIQIGFMTYLVEPLFTEWARFSNTRLSQTMLGHVGLNKASWKGLQREQSSSEDTDAAFELNSQLLPQENRLS
modifications: left off: small tags and cut ends
Km ([5]; Table 1): 0.052 µM
increase in PDE catalytic activity compared to mock transfected cells ([6]; CHO cells): 8 fold
level of PDE activity after expression in CHO cells (in words) [6]: Highest levels of PDE activity
increase in PDE catalytic activity compared to full length PDE7A1/PDE7A2 [6]: 15 fold
phosphodiesterase catalytic activity relative to full length enzyme [6]: about 15 times

B5: fragment 1-101: first N-terminal 100 amino acids of the full length human PDE7A1 (protein, UniProt Q13946 1-100, looked up, fragment)
chain: MEVCYQLPVLPLDRPVPQHVLSRRGAISFSSSSALFGCPNPRQLSQRRGAISYDSSDQTALYIRMLGDVRVRSRAGFESERRGSHPYIDFRIFHSQSEIE
modifications: PDE7A1
notes: first N-terminal 100 amino acids of the full length human PDE7A1
inhibition of catalytic site activity ([7]; co-expression, 15 μg of each plasmid DNA): 40-50%
inhibition of catalytic domain activity ([7]; dose effect curve, fragment at the highest concentration, n=3): ≤ 60%
